Consider 31 compounds from ChEMBL document CHEMBL1133592, “trans-1-[(2-Phenylcyclopropyl)methyl]-4-arylpiperazines: mixed dopamine D(2)/D(4) receptor antagonists as potential antipsychotic agents” (J Med Chem, 2000).

Series [1] has as its target T1, Adrenergic receptor alpha-1 (Rattus norvegicus, UniProt P15823+P23944+P43140).
T1 sequence (P15823 whole entry): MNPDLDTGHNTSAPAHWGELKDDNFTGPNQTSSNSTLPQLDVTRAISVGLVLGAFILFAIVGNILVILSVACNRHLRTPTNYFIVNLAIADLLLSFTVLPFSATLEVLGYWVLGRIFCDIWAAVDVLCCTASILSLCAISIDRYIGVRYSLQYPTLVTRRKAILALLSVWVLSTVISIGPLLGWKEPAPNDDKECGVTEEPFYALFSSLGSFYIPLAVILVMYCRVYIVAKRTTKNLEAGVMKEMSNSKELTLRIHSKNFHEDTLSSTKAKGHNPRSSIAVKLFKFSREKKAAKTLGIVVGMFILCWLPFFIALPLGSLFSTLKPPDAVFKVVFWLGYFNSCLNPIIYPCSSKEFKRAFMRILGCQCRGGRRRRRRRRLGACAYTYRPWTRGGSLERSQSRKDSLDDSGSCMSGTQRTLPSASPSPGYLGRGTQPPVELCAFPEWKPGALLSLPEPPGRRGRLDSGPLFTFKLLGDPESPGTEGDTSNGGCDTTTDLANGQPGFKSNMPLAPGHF
T1 sequence (P23944 whole entry): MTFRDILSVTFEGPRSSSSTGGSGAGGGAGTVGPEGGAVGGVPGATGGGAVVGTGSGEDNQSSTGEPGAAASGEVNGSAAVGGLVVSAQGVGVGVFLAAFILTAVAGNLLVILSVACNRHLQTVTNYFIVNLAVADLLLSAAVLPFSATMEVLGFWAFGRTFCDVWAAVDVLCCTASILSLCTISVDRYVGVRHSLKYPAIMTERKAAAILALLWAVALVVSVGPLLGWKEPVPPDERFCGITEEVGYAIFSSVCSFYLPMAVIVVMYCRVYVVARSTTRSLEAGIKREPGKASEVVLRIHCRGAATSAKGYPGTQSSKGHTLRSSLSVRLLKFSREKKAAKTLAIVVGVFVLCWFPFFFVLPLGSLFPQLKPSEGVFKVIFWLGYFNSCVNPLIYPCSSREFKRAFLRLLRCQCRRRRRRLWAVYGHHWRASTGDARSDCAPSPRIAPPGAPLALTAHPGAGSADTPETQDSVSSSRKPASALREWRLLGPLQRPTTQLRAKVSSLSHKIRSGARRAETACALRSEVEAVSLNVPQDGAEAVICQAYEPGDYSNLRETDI
T1 sequence (P43140 whole entry): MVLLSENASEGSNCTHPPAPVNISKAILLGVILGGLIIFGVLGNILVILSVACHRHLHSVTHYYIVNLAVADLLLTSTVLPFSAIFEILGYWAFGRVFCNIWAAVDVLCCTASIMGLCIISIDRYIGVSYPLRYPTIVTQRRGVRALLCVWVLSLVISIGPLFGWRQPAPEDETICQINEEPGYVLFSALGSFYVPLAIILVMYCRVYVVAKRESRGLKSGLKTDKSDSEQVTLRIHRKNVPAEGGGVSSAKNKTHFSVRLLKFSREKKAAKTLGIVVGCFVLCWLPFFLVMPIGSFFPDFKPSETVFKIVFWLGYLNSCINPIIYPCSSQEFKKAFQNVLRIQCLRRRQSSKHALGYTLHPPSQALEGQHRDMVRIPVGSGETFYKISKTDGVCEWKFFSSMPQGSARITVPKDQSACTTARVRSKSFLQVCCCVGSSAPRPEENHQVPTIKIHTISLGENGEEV
Description: Binding affinity to alpha-1 adrenergic receptor from rat brain homogenate, using [3H]- prazosin as the competitive ligand

The species entered for series [2] is Rattus norvegicus. Description: animal or person. As to conditions: read-out: MED.
Description: Minimum effective dose that produced a significant effect relative to the amphetamine alone control using a Fisher's LSD post hoc test (P<0.05)
The species entered for series [3] is Rattus norvegicus. Description: animal or person. As to conditions: read-out: MED. This is another data set of the same source.
Description: Minimum effective dose observed in rat catalepsy experiments
Series [4] in a line: Half-life determined upon exposure to rat liver microsomes. Format: ADME, Microsome.
A short description of series [5]: Half-life determined upon exposure to human liver microsomes. It is filed as ADME, Microsome.

Regarding `Br.Clc1ccc(N2CCN(C[C@H]3C[C@@H]3c3ccccc3)CC2)cc1` (racemic), the IC50 (commonly the point on the concentration scale where inhibition reaches its midpoint) in series [1] came out at 81 nM. In turn, `Br.Cc1cc(Cl)ccc1N1CCN(C[C@H]2C[C@@H]2c2ccccc2)CC1` registered an IC50 in series [1] of 307 nM. Same read-out and setting: the figure for `Br.COc1ccc(N2CCN(C[C@H]3C[C@@H]3c3ccccc3)CC2)cc1` (racemic) is 633 nM. Same read-out and setting: the figure for `Br.c1ccc([C@H]2C[C@@H]2CN2CCN(c3cccnc3)CC2)cc1` (racemic) is more than 1246 nM. `CN1CCN(C2=Nc3cc(Cl)ccc3Nc3ccccc32)CC1` [CLOZAPINE]: the minimal effective dose in the series filed under Rattus norvegicus [2] was 0.5 mg/kg. In series [1], `Br.Fc1ccc([C@H]2C[C@@H]2CN2CCN(c3ccccc3Cl)CC2)cc1` (racemic) gave an IC50 of 9 nM. Still for that read-out and setting: the figure for `Br.COc1cccc(N2CCN(C[C@H]3C[C@@H]3c3ccccc3)CC2)c1` (racemic) is 324 nM; for `Br.Oc1ccc([C@H]2C[C@@H]2CN2CCN(c3ccc(Cl)cc3Cl)CC2)cc1` (racemic) it is 74 nM. `Cl.c1ccc([C@H]2C[C@@H]2CN2CCN(c3ncccn3)CC2)cc1` (racemic) registered an IC50 in series [1] of 168 nM. On the same count and under the same terms, the same measure for `Br.Br.COc1cc(F)ccc1N1CCN(C[C@H]2C[C@@H]2c2ccccc2)CC1`: 14 nM; for `Br.Cc1ccc(N2CCN(CC3CC3c3ccccc3)CC2)c(C)c1` (racemic): 144 nM. On the same count and under the same terms, the same measure for `Br.Cc1ccc(N2CCN(C[C@H]3C[C@@H]3c3ccccc3)CC2)c(C)c1`: 137 nM; for `Br.Cc1cc(F)ccc1N1CCN(C[C@H]2C[C@@H]2c2ccccc2)CC1`: 31 nM; for `Br.COc1ccc(Cl)cc1N1CCN(C[C@H]2C[C@@H]2c2ccccc2)CC1` (racemic): 8 nM.

In the case of `O=C(CCCN1CCC(O)(c2ccc(Cl)cc2)CC1)c1ccc(F)cc1` [HALOPERIDOL], the minimal effective dose in the series listed under Rattus norvegicus [3] was 0.5 mg/kg; in the series filed under Rattus norvegicus [2] it was 0.06 mg/kg. In turn, `Br.Clc1ccc(N2CCN(C[C@H]3C[C@@H]3c3ccccc3)CC2)cc1Cl` (racemic) gave an IC50 in series [1] of 45 nM.

For the compound `Br.c1ccc([C@H]2C[C@@H]2CN2CCN(c3ccncc3)CC2)cc1` (racemic), the IC50 in series [1] was more than 10000 nM.

As to `Br.COc1ccc([C@H]2C[C@@H]2CN2CCN(c3ccc(Cl)cc3Cl)CC2)cc1` (racemic), the IC50 in series [1] amounted to 61 nM. With `Br.Clc1ccc(N2CCN(C[C@H]3C[C@@H]3c3ccccc3)CC2)c(Cl)c1` (racemic), in series [1], the IC50 is 311 nM. For `c1ccc([C@H]2C[C@@H]2CN2CCN(c3ccccc3)CC2)cc1` (racemic), the IC50 in series [1] was 22 nM. On to `Br.Clc1cc(Cl)cc(N2CCN(C[C@H]3C[C@@H]3c3ccccc3)CC2)c1` (racemic), for which, in series [1], the IC50 worked out at 1341 nM. Regarding `Br.Clc1ccccc1N1CCN(C[C@H]2C[C@@H]2c2ccccc2)CC1` (racemic), in series [1], the IC50 is 10 nM. On the same count and under the same terms, the figure for `Clc1ccc(N2CCN(C[C@@H]3C[C@H]3c3ccccc3)CC2)c(Cl)c1` is 348 nM. On to `Br.COc1cc(Cl)ccc1N1CCN(C[C@H]2C[C@@H]2c2ccccc2)CC1`, for which the IC50 in series [1] amounted to 29 nM.

With `Br.COc1c(Cl)cc(N2CCN(C[C@H]3C[C@@H]3c3ccccc3)CC2)cc1Cl` (racemic), the IC50 in series [1] was determined as 193 nM. On to `Cl.c1ccc([C@H]2C[C@@H]2CN2CCN(c3ccccn3)CC2)cc1` (racemic), for which, in series [1], the IC50 is 55 nM. On to `Br.Clc1cccc(N2CCN(C[C@H]3C[C@@H]3c3ccccc3)CC2)c1` (racemic), for which the IC50 in series [1] was found to be 70 nM.

`Br.Clc1ccc(N2CCN(C[C@H]3C[C@@H]3c3ccccc3)CC2)c(Cl)c1`: the half-life (in general, how long it takes for the measured level to halve) in series [4] was determined as 2 min; in series [5] it was 19 min. This compound also had an IC50 in series [1] of 322 nM.

Turning to `Br.Cc1ccc(N2CCN(C[C@@H]3C[C@H]3c3ccccc3)CC2)c(C)c1`, the values for the half-life in series [4] and in series [5] were 3 min and 16 min, respectively. In series [1], this compound gave an IC50 of 131 nM. The compound `Br.Fc1ccc([C@H]2C[C@@H]2CN2CCN(c3ccc(Cl)cc3)CC2)cc1` (racemic) came in with an IC50 in series [1] of 61 nM. For the compound `Br.Clc1cccc(N2CCN(C[C@H]3C[C@@H]3c3ccccc3)CC2)c1Cl` (racemic), in series [1], the IC50 was 329 nM.
